Results published in patent US20230172936A1, “VCP/p97 INHIBITOR FOR THE TREATMENT OF CANCER” (Cleave Therapeutics, Inc., priority 2020, published 2023).

Columns and labels:
MOML-13 cell line = test: Combination treatments, Cell Titer-Glo viability after 72 hours; format: cell-based, human; conditions: MOML-13
Protocol: (§1) The additional therapeutic agents for this example were azacitidine (Cayman Chemical Cat No. 11164), decitabine (Sigma Cat No. A3656) and venetoclax (InvivoChem Cat. No. V0001).
(§2) Cell Culture: Three human acute myeloid leukemia tumor cell lines were used in this study: HL60, MV4;11 and MOLM-13. HL60 and MV4;11 were grown in IMDM base media with 20% and 10% FBS, respectively. MOLM-13 was grown in RPMI 1640 base media with 20% FBS. All culture media contained 2 mM glutamine, 100 units/mL sodium penicillin G, […] gentamicin, and 100 μg/mL streptomycin sulfate. The tumor cells were cultured in tissue culture flasks in a humidified incubator at 37° C., in an atmosphere of 5% C02 and 95% air. Assay: Tumor cells were seeded in duplicate in a volume of 100 μL/well of media into 96-well micro-culture plates at initial densities low enough to allow for several population doublings (typically three to five) during the indicated incubation period. After a 24 hour incubation, test agents were added to each well. After 72 hours of culture with test articles, cell viability was determined using the Cell Titer-Glo® (Promega G7571) assay. Briefly, Cell Titer-Glo® (Promega G7571) reagents were equilibrated at room temperature for 30 minutes; 100 μL per well was added at endpoint (72 hours). Plates were gently shaken for two minutes and then incubated at room temperature for ten minutes prior to reading luminescence on the BMG Clariostar Plus microplate reader.
(§3) An IC50 ratio for each combination was calculated from the ratio of the combination IC50 as compared to the applicable no fixed agent (vehicle) control.

MV4; 11 cell line = test: as above; format: cell-based, human; conditions: MV4, 11
Protocol: as §1, §2, §3

HL-60 cell line = test: as above; format: cell-based, human; conditions: HL-60
Protocol: as §1, §2, §3

MV-411 cell line = test: Cytotoxicity by Cell Titer Glo; format: cell-based; conditions: Homo sapiens, MV4-11, 144 h, 6 days
Protocol: (§4) Acute myelogenous leukemia (AML) is the most common acute leukemia in adults. A hematologic cancer, the disease is highly heterogeneous, with multiple subtypes. About 30% of AML cases harbor a FLT3/ITD mutation making the disease highly proliferative and more aggressive with a high risk of relapse.
(§5) Triplicate wells with media only and duplicate wells of vehicle (0.2% DMSO) were used as negative controls. […] To measure proliferation, untreated cells at days 0 and 6 were evaluated via Cell Titer Glo.
(§6) Protocol: • 1. AML cells were thawed and resuspended in enriched media composed of StemSpan™ Serum-Free Expansion Media (SFEM), 2% heat-inactivated FBS, StemSpan™ CC110 and recombinant human IL-3. • 2. 20,000 cells/well in 100 μL volume were plated on study day 0. • 3. […] Cells were incubated in the presence of drug for 6 days. • 5. On day 6, plates were removed from the incubator and equilibrated to room temperature for 20 minutes. 100 μL/well Cell Titer Glo was added to each well and incubated for 10 minutes before plate reading. • 6. Luminescence was recorded using Tecan Infinite M Plex plate reader.

[1] = system: 30 passage 1 (P1) models of human acute myeloid leukemia; test: Ex-vivo cytotoxicity by Cell Titer Glo, all models; format: cell-based; conditions: 144 h, single agent, 6 days, read-out: IC50s in these models
Protocol: as §4, §5, §6

[2] = Adverse events and visual impairment in Phase I subjects
p97 = p97 (Homo sapiens, UniProt P55072); test: P97 inhibition assay (ADP glo); format: biochemical
Protocol: The p97 assay is an assay used to determine inhibitory activity of compounds against the p97 complex. Inhibition of activity of the p97 proteosome complex can enable apoptosis and cause elimination of neoplastic cells (cancer cells). The assay follows that of Christianson in Nat. Cell Biol., (2011) 14:93. The reagents used for the p97 assay include an assay buffer which is a mixture of 50 mM TRIS pH 7.5, 20 mM MgCI˜, 0.02% TX-100, 1 mM DTT and 0.2% (v/v) glycerol. The well plate is a Corning 3674, 384w plate. The identification kit is an ADP glo kit (Promega): stop buffer, detection reagent.
The assay is conducted as follows: • Serial dilute compound in DMSO in a 1:3.33-fold 10 point serial dilution. • In each well of 384w plate add the following reagents: 0.5 μL compound serial diluted in DMSO (Final Conc. 10%) 2 μL ATP (Final Conc.=20 μM, diluted in assay buffer) 2.5 μL p97 (Final Conc.=20 nM, diluted in assay buffer). • Incubate at 37° C. for 15 min. • Add 5 μL of stop buffer, incubate at RT for 40 min. • Add 10 μL of detection reagent, incubate at RT for 30 min. • Read luminescence on Envision plate reader. […]

CTG-2453 = test: Ex-vivo cytotoxicity by Cell Titer Glo; format: cell-based; conditions: Homo sapiens, 144 h; CTG-2453, 6 days
Protocol: as §4, §5, §6

CTG-2700 = test: Ex-vivo cytotoxicity by Cell Titer Glo; format: cell-based; conditions: Homo sapiens, 144 h; CTG-2700, 6 days
Protocol: as §4, §5, §6

CTG-2238 = test: Ex-vivo cytotoxicity by Cell Titer Glo; format: cell-based; conditions: Homo sapiens, 144 h; CTG-2238, 6 days
Protocol: as §4, §5, §6

CTG-2236 = test: Ex-vivo cytotoxicity by Cell Titer Glo; format: cell-based; conditions: Homo sapiens, 144 h; CTG-2236, 6 days
Protocol: as §4, §5, §6

[3] = Homo sapiens, 72 h, no fixed agent (vehicle), read-out: IC50
[4] = fixed agent Venetoclax+ Azacitidine - 20 nM

p97, sequence (P55072 whole entry): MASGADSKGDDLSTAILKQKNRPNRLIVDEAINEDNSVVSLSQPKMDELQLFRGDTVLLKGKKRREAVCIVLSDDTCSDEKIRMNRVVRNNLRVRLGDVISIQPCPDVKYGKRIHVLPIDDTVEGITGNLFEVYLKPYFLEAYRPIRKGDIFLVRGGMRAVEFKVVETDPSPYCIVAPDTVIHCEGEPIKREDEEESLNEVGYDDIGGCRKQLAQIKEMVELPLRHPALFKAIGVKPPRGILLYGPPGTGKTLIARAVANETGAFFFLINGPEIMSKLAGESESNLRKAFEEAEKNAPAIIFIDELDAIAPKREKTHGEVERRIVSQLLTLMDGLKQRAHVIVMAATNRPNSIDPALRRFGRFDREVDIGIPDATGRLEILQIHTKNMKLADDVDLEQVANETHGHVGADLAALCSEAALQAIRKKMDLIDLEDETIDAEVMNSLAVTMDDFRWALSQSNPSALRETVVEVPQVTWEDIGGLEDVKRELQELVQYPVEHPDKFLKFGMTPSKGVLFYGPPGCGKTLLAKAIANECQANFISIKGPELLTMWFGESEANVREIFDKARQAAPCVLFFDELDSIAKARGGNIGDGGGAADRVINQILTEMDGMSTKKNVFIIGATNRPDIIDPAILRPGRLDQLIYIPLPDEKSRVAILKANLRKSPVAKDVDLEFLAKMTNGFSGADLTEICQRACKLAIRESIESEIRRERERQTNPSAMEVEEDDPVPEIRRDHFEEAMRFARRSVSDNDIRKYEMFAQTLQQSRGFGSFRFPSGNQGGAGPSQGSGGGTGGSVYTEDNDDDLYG

Cc1cc2c(C(N)=O)cccc2n1-c1nc2c(c(NCc3ccccc3)n1)CCCN2 [Compound 1, 1-(4-(Benzylamino)-5,6,7,8-tetrahydropyrido[2,3-d]pyrimidin-2-yl)-2-methyl-1H-indole-4-carboxamide]
IC50 (MOML-13 cell line; [3]): 216 nM
Combination: Monotherapy IC50 Ratio (MOML-13 cell line; fixed agent Azacitidine - 105 nM): 0.39
Combination: Monotherapy IC50 Ratio (MOML-13 cell line; fixed agent Azacitidine - 850 nM): 0.39
Combination: Monotherapy IC50 Ratio (MOML-13 cell line; fixed agent Decitabine - 2.5 nM): 0.56
Combination: Monotherapy IC50 Ratio (MOML-13 cell line; fixed agent Decitabine - 8.5 nM): 0.30
Combination: Monotherapy IC50 Ratio (MOML-13 cell line; fixed agent Venetoclax+ Azacitidine - 6.5 nM): 0.71
Combination: Monotherapy IC50 Ratio (MOML-13 cell line; [4]): 0.52
IC50 (MV4; 11 cell line; [3]): 251 nM
Combination: Monotherapy IC50 Ratio (MV4; 11 cell line; fixed agent Azacitidine - 500 nM): 0.46
Combination: Monotherapy IC50 Ratio (MV4; 11 cell line; fixed agent Azacitidine - 3150 nM): 0.47
Combination: Monotherapy IC50 Ratio (MV4; 11 cell line; fixed agent Decitabine - 30 nM): 0.47
Combination: Monotherapy IC50 Ratio (MV4; 11 cell line; fixed agent Decitabine - 215 nM): 0.36
Combination: Monotherapy IC50 Ratio (MV4; 11 cell line; [4]): 0.65
Combination: Monotherapy IC50 Ratio (MV4; 11 cell line; fixed agent Venetoclax+ Azacitidine - 50 nM): 0.47
Combination: Monotherapy IC50 Ratio (HL-60 cell line; fixed agent Azacitidine - 5750 nM): 1.02
Combination: Monotherapy IC50 Ratio (HL-60 cell line; fixed agent Azacitidine - 9800 nM): 0.85
Combination: Monotherapy IC50 Ratio (HL-60 cell line; fixed agent Decitabine - 175 nM): 0.96
Combination: Monotherapy IC50 Ratio (HL-60 cell line; fixed agent Decitabine - 1700 nM): 1.06
Combination: Monotherapy IC50 Ratio (HL-60 cell line; fixed agent Venetoclax+ Azacitidine - 85 nM): 0.84
Combination: Monotherapy IC50 Ratio (HL-60 cell line; fixed agent Venetoclax+ Azacitidine - 475 nM): 0.84
IC50 (HL-60 cell line; [3]): 305 nM
IC50 (MV-411 cell line): 262 nM
IC50 [1]: 200 to 800 nM
adverse events ([2]; 25 mg QD, two subjects): No adverse events
symptoms of visual impairment ([2]; 25 mg QD, two subjects): no symptoms of visual impairment
symptoms of visual impairment or other visual events ([2]; any dose levels, highest level 275 mg QD): No symptoms of visual impairment or other visual events
symptoms of visual impairment or other visual adverse events ([2]; at equivalent plasma exposure of Compound 1 and CB-5083): no symptoms of visual impairment or other visual adverse events
IC50 (p97): < 30 nM
IC50 (CTG-2453): 307 nM
IC50 (CTG-2700): 386 nM
IC50 (CTG-2238): 237 nM
IC50 (CTG-2236): 527 nM
